According to patent US6800674B2, “Anthraquinone compound and water-based ink-jet recording ink containing the compound” (Mitsui Chemicals, Inc., priority 2000, dated 2004):

How the values were obtained:
Assay type in all cases: physicochemical
[1] = Evaluation of light fastness (xenon fadeometer, OD2); conditions: aqueous ink, ink production process Example 1; OD2 after 100 hours of irradiation
Description: (§1) Glycerin and water were added to the dispersion (A) of colored resin fine particles to obtain aqueous ink having a solid content of 15% by weight. This aqueous ink was used, and filled in an ink cartridge for a piezo-type ink jet printer, and printing and image recording were conducted with the same printer. The test was conducted on the following items.
(E) Evaluation of Light Fastness
Printing density (OD value) was measured using a xenon fadeometer (manufactured by Suga Shikenki) before irradiation and after 100 hours of irradiation. Light fastness was evaluated upon comparing OD2.
OD2=(OD value after irradiation)/(OD value before irradiation)×100[%]

[2] = Evaluation of water resistance (OD1 after/before dipping in water); conditions: aqueous ink, OD1 after dipping in water and air-drying
Description: as §1
(D) Evaluation of Water Resistance
With respect to a printed portion of a plain paper having a recorded image thereon for test, printing density (OD value) was measured with a reflection densitometer before dipping in water and after dipping in water and air-drying. Water resistance was evaluated upon comparing OD1.
OD1=(OD value after dipping in water and air-drying)/(OD value before dipping in water)×100[%]

[3] = Evaluation of light fastness (xenon fadeometer, OD2); conditions: aqueous ink, ink production process Example 2; OD2 after 100 hours of irradiation
[4] = ink production process Example 1
[5] = ink production process Example 2

| SMILES | E (Evaluation of light fastness) [1] | D (Evaluation of water resistance) [2, 4] | D (Evaluation of water resistance) [2, 5] | E (Evaluation of light fastness) [3] |
| --- | --- | --- | --- | --- |
| CCCCCCCCN(CCCCCCCC)c1cccc(Oc2cc(O)c3c(c2N)C(=O)c2ccccc2C3=O)c1 [Coloring matter No. 1] | ⊚⊚ (OD value is 90 to 100%.) | ⊚⊚ (OD value is 90 to 100%.) | – | – |
| Nc1ccccc1Oc1cc(O)c2c(c1N)C(=O)c1ccccc1C2=O [compound 4] | ◯ (OD value is 70 to less than 80%.) | ⊚ (OD value is 80 to less than 90%.) | ⊚ (OD value is 80 to less than 90%.) | ◯ (OD value is 70 to less than 80%.) |
| CN(C)c1cccc(Oc2cc(O)c3c(c2N)C(=O)c2ccccc2C3=O)c1 [compound 5] | ⊚ (OD value is 80 to less than 90%.) | ⊚⊚ (OD value is 90 to 100%.) | ⊚⊚ (OD value is 90 to 100%.) | ⊚ (OD value is 80 to less than 90%.) |
| CCNc1cccc(Oc2cc(O)c3c(c2N)C(=O)c2ccccc2C3=O)c1 [compound 6] | ⊚ (OD value is 80 to less than 90%.) | ⊚⊚ (OD value is 90 to 100%.) | ⊚⊚ (OD value is 90 to 100%.) | ◯ (OD value is 70 to less than 80%.) |
| CCN(CC)c1cccc(Oc2cc(O)c3c(c2N)C(=O)c2ccccc2C3=O)c1 [compound 7] | ⊚ (OD value is 80 to less than 90%.) | ⊚⊚ (OD value is 90 to 100%.) | ⊚⊚ (OD value is 90 to 100%.) | ⊚ (OD value is 80 to less than 90%.) |
| CCCN(CCC)c1cccc(Oc2cc(O)c3c(c2N)C(=O)c2ccccc2C3=O)c1 [compound 8] | ⊚⊚ (OD value is 90 to 100%.) | ⊚⊚ (OD value is 90 to 100%.) | ⊚⊚ (OD value is 90 to 100%.) | ⊚⊚ (OD value is 90 to 100%.) |
| CCCCC(CC)CC(=O)Nc1ccc(O)cc1Sc1cc(O)c2c(c1N)C(=O)c1ccccc1C2=O (stereo not drawn) [compound 19] | Δ (OD value is 50 to less than 70%.) | ◯ (OD value is 70 to less than 80%.) | – | – |
| CCCCCCCCOC(=O)CSc1cc(O)c2c(c1N)C(=O)c1ccccc1C2=O [compound 20] | Δ (OD value is 50 to less than 70%.) | ◯ (OD value is 70 to less than 80%.) | – | – |
| CCCCCCCCSc1cc(O)c2c(c1N)C(=O)c1ccccc1C2=O [compound 21] | Δ (OD value is 50 to less than 70%.) | ◯ (OD value is 70 to less than 80%.) | – | – |
| Nc1ccccc1Sc1cc(O)c2c(c1N)C(=O)c1ccccc1C2=O [compound 22] | Δ (OD value is 50 to less than 70%.) | ◯ (OD value is 70 to less than 80%.) | – | – |
| Nc1c(Oc2ccccc2)cc(O)c2c1C(=O)c1ccccc1C2=O [compound 23] | Δ (OD value is 50 to less than 70%.) | ◯ (OD value is 70 to less than 80%.) | – | – |
| Cc1cccc(Oc2cc(O)c3c(c2N)C(=O)c2ccccc2C3=O)c1 [compound 24] | ◯ (OD value is 70 to less than 80%.) | ◯ (OD value is 70 to less than 80%.) | – | – |
| Cc1ccc(CCCOc2cc(O)c3c(c2N)C(=O)c2ccccc2C3=O)cc1 [compound 25] | ◯ (OD value is 70 to less than 80%.) | ◯ (OD value is 70 to less than 80%.) | – | – |
| CCCCC(CC)COC(=O)CSc1cccc(Oc2cc(O)c3c(c2N)C(=O)c2ccccc2C3=O)c1 (stereo not drawn) [compound 26] | ◯ (OD value is 70 to less than 80%.) | ◯ (OD value is 70 to less than 80%.) | – | – |
| CCCCCCCCCCCCCCCCCCOC(=O)CSc1cc(O)c2c(c1N)C(=O)c1ccccc1C2=O [compound 27] | Δ (OD value is 50 to less than 70%.) | ◯ (OD value is 70 to less than 80%.) | – | – |
| CCCCC(CC)COC(=O)CSc1ccccc1Oc1cc(O)c2c(c1N)C(=O)c1ccccc1C2=O (stereo not drawn) [compound 28] | ◯ (OD value is 70 to less than 80%.) | ◯ (OD value is 70 to less than 80%.) | – | – |
| CCCCC(CC)COC(=O)CCSc1cc(O)c2c(c1N)C(=O)c1ccccc1C2=O (stereo not drawn) [compound 29] | Δ (OD value is 50 to less than 70%.) | ◯ (OD value is 70 to less than 80%.) | – | – |
| CCCCC(CC)COC(=O)CSc1cc(O)c2c(c1N)C(=O)c1ccccc1C2=O (stereo not drawn) [compound 30] | Δ (OD value is 50 to less than 70%.) | ◯ (OD value is 70 to less than 80%.) | – | – |
| Nc1c(SCCOCCSc2cc(O)c3c(c2N)C(=O)c2ccccc2C3=O)cc(O)c2c1C(=O)c1ccccc1C2=O [compound 31] | Δ (OD value is 50 to less than 70%.) | ◯ (OD value is 70 to less than 80%.) | – | – |
| CCCCOC(=O)CSc1cc(O)c2c(c1N)C(=O)c1ccccc1C2=O [compound 32] | Δ (OD value is 50 to less than 70%.) | ◯ (OD value is 70 to less than 80%.) | – | – |
| CCCCC(CC)C(=O)Nc1ccccc1Oc1cc(O)c2c(c1N)C(=O)c1ccccc1C2=O (stereo not drawn) [compound 33] | ◯ (OD value is 70 to less than 80%.) | ◯ (OD value is 70 to less than 80%.) | – | – |
| CCCCC(CC)C(=O)Nc1cccc(Oc2cc(O)c3c(c2N)C(=O)c2ccccc2C3=O)c1 (stereo not drawn) [compound 34] | ◯ (OD value is 70 to less than 80%.) | ◯ (OD value is 70 to less than 80%.) | – | – |
| Nc1c(Oc2ccccc2NC(=O)c2ccccc2)cc(O)c2c1C(=O)c1ccccc1C2=O [compound 35] | ◯ (OD value is 70 to less than 80%.) | ◯ (OD value is 70 to less than 80%.) | – | – |
| CCCCN(CCCC)c1cccc(CCOc2cc(O)c3c(c2N)C(=O)c2ccccc2C3=O)c1 [compound 36] | ◯ (OD value is 70 to less than 80%.) | ◯ (OD value is 70 to less than 80%.) | – | – |
| Nc1c(Oc2cccc(C(F)(F)F)c2)cc(O)c2c1C(=O)c1ccccc1C2=O [compound 37] | ◯ (OD value is 70 to less than 80%.) | ◯ (OD value is 70 to less than 80%.) | – | – |
| CCCCCCCCCc1ccc(Oc2cc(O)c3c(c2N)C(=O)c2ccccc2C3=O)cc1 [compound 38] | ◯ (OD value is 70 to less than 80%.) | ◯ (OD value is 70 to less than 80%.) | – | – |
| CCCCC(CC)C(=O)Oc1ccc(Oc2cc(O)c3c(c2N)C(=O)c2ccccc2C3=O)cc1 (stereo not drawn) [compound 39] | ◯ (OD value is 70 to less than 80%.) | ◯ (OD value is 70 to less than 80%.) | – | – |
| CCCCC(CC)COC(=O)CSc1ccc(Oc2cc(O)c3c(c2N)C(=O)c2ccccc2C3=O)cc1 (stereo not drawn) [compound 40] | ◯ (OD value is 70 to less than 80%.) | ◯ (OD value is 70 to less than 80%.) | – | – |
